Laboratory results: patent US20230278996A1, “YKL-40 INHIBITORS AND THEIR THERAPEUTIC APPLICATIONS” (Molecure S.A., priority 2022, published 2023)
Where a name gives a salt, the structure may show the parent alone.

Tests used:
[1] = target: T1, YKL-40 (Homo sapiens (Human), UniProt P36222); test: Bio-layer interferometry (BLITz) Kd of biotinylated compounds; format: binding; settings: symbol preceded by asterisk; biotinylated compound on streptavidin biosensor; read-out: YKL-40:4, Kd
Description: BLITz system (Sartorius) that used Bio-layer interferometry technology was applied to assess Kd of biotinylated compounds. […] During dehydration process the 10 mM stock of biotinylated compound in DMSO was diluted in MST buffer to final concentration of 0.5 μM. In addition, protein stock of recombinant YKL40 (un-tagged, purified in-house) was also prepared in MST buffer at two concentrations: 200 μM and 400 μM. The dehydrated biosensor was applied on the BLITz system that was followed by 5-step procedure: 1) initial baseline for 30 s with MST buffer in tube, 2) loading of 4 μl of biotinylated compound on drop, 3) baseline for 30 s with MST buffer in tube, 4) association of 4 μl of protein stock at one concentration or MST buffer (negative control), 5) dissociation with MST buffer in tube. The same multi-step measurement was done twice for each protein stock concentration and once for negative control. Kd was measured by the BLITz software based on global fitting using the negative control as a reference.

[2] = target: T1, YKL-40; test: YKL-40:4 assay, competitive chitin binding site AlphaScreen; settings: competition with biotinylated compound 4 (20 nM), YKL-40-histag 2.5 nM
[3] = target: YKL-40: heparan sulfate interaction (Homo sapiens (Human), UniProt P36222); test: YKL-40:HS assay, heparan sulfate interference AlphaScreen; format: binding; settings: competition with biotinylated heparan sulphate (60 nM)
Chain of YKL-40: heparan sulfate interaction (P36222 22-383): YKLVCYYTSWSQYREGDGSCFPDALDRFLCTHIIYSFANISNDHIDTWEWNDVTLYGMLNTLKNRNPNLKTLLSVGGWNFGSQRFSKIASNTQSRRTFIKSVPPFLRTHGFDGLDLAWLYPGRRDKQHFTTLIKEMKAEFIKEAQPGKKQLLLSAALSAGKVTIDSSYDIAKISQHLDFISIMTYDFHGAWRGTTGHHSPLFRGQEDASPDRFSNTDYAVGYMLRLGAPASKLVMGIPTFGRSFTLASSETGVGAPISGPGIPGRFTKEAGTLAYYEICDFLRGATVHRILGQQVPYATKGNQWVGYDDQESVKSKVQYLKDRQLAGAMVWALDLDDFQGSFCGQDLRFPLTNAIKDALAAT
Description: In the similar way to establishing YKL-40 chitin binding site competitive AlphaScreen assay (section 3), the YKL-40 AlphaScreen assay using biotinylated 9 kDa heparan sulfate fraction III was established, including the same buffer conditions (50 mM Tris HCl pH 7.4, 150 mM NaCl, 10 mM MgCl2, 0.05% Tween 20, 1 mg/mL BSA 1% DMSO). […] Next, biotinylated heparan sulfate fraction III custom-ordered from Iduron was cross-titrated with histagged YKL-40 using AlphaScreen assay described above.
Positive and negative control wells received just 8 uL of MST buffer containing 2% DMSO without inhibitor in the 2nd step (ii). In addition, negative control received just 8 uL of MST buffer containing 0% DMSO without YKL-40-histag in the 3nd step (iii). Finally, the plate luminescence was excited at 680 nm and the emission read at 520-620 nm using the AlphaScreen module in the The Spark™ 10 M multimode microplate reader (Tecan Trading AG, Männedorf, Switzerland). Inhibition percentage and IC50 values were determined using GraphPad Prism 7.0 software (GraphPad Software, San Diego, Calif., USA).

T1 sequence (P36222 22-383): as above

Compound	Kd [1] [nM]	IC50 [2] [nM]	IC50 [3] [nM]
O=C(CCCC[C@@H]1SC[C@@H]2NC(=O)N[C@@H]21)NCCOCCOCCOCCOCCOCCOCCOCCOCCOCCOCCOCCOCCC(=O)NC[C@H]1CN(C2CCN(c3ccccn3)CC2)[C@@H](Cc2ccc(Cl)cc2)CO1 [Example 5, N-(((2S,5S)-5-(4-chlorobenzyl)-4-(1-(pyridin-2-yl)piperidin-4-yl)morpholin-2-yl)methyl)-1-(5-((3aS,4S,6aR)-2-oxohexahydro-1H-thieno[3,4-d]imidazol-4-yl)pentanamido)-3,6,9,12,15,18,21,24,27,30,33,36-dodecaoxanonatriacontan-39-amide]	< 100		
CN1C[C@H](Cc2ccc(Cl)cc2)N(C2CCN(c3cc(Cl)ccn3)CC2)C[C@@H]1CN1CCOCC1 [compound 51, 4-(((2S,5S)-5-(4-chlorobenzyl)-4-(1-(4-chloropyridin-2-yl)piperidin-4-yl)-1-methyl-piperazin-2-yl)methyl)morpholine hydrochloride]		< 100	< 100
CN1C[C@H](Cc2ccc(Cl)cc2)N(C2CCN(c3ccccn3)CC2)C[C@@H]1Cc1ccc(Cl)cc1 [compound 63, (2S,5S)-2,5-bis(4-chlorobenzyl)-1-methyl-4-(1-(pyridin-2-yl)piperidin-4-yl)piperazine 2,2,2-trifluoroacetate]		1000 to 10000	100 to 1000
CN1C[C@H](Cc2ccc(Cl)cc2)N(C2CCN(c3cc(Cl)ccn3)CC2)C[C@@H]1Cn1ccnc1 [compound 82, (2R,5S)-2-((1H-imidazol-1-yl)methyl)-5-(4-chlorobenzyl)-4-(1-(4-chloropyridin-2-yl)piperidin-4-yl)-1-methylpiperazine hydrochloride]		< 100	< 100
CNC(=O)CN1C[C@H](Cc2ccc(Cl)cc2)N(C2CCN(c3ccccn3)CC2)C[C@@H]1CC(C)C [compound 95, 2-((2S,5S)-5-(4-chlorobenzyl)-2-isobutyl-4-(1-(pyridin-2-yl)piperidin-4-yl)piperazin-1-yl)-N-methylacetamide 2,2,2-trifluoroacetate]		< 100	< 100
CNC(=O)CN1C[C@H](Cc2ccc(Cl)cc2)N(C2CCN(c3ccccn3)CC2)C[C@@H]1C(C)C [compound 106, 2-((2S,5S)-5-(4-chlorobenzyl)-2-isopropyl-4-(1-(pyridin-2-yl)piperidin-4-yl)piperazin-1-yl)-N-methylacetamide 2,2,2-trifluoroacetate]		< 100	< 100
Cc1ccnc(N2CCC(N3C[C@H](C)OC[C@@H]3Cc3ccc(Cl)cc3)CC2)c1F [compound 112, (2S,5S)-5-(4-chlorobenzyl)-4-(1-(3-fluoro-4-methylpyridin-2-yl)piperidin-4-yl)-2-methylmorpholine 2,2,2-trifluoroacetate]		100 to 1000	< 100
Cc1nsc(N2CCC(N3C[C@H](C)OC[C@@H]3Cc3ccc(Cl)cc3)CC2)n1 [compound 180, (2S,5S)-5-(4-chlorobenzyl)-2-methyl-4-(1-(3-methyl-1,2,4-thiadiazol-5-yl)piperidin-4-yl)morpholine 2,2,2-trifluoroacetate]		> 100000	
C[C@H]1CN(C2CCN(c3nncs3)CC2)[C@@H](Cc2ccc(Cl)cc2)CO1 [compound 181, (2S,5S)-4-(1-(1,3,4-thiadiazol-2-yl)piperidin-4-yl)-5-(4-chlorobenzyl)-2-methylmorpholine 2,2,2-trifluoroacetate]		> 100000	
Cc1nnc(N2CCC(N3C[C@H](C)OC[C@@H]3Cc3ccc(Cl)cc3)CC2)s1 [compound 182, (2S,5S)-5-(4-chlorobenzyl)-2-methyl-4-(1-(5-methyl-1,3,4-thiadiazol-2-yl)piperidin-4-yl)morpholine 2,2,2-trifluoroacetate]		> 100000	
Cc1nc(N2CCC(N3C[C@H](C)OC[C@@H]3Cc3ccc(Cl)cc3)CC2)sc1C [compound 183, (2S,5S)-5-(4-chlorobenzyl)-4-(1-(4,5-dimethylthiazol-2-yl)piperidin-4-yl)-2-methylmorpholine 2,2,2-trifluoroacetate]		< 100	< 100
Cc1csc(N2CCC(N3C[C@H](C)OC[C@@H]3Cc3ccc(Cl)cc3)CC2)n1 [compound 184, (2S,5S)-5-(4-chlorobenzyl)-2-methyl-4-(1-(4-methylthiazol-2-yl)piperidin-4-yl)morpholine 2,2,2-trifluoroacetate]		1000 to 10000	
Cc1cnc(N2CCC(N3C[C@H](C)OC[C@@H]3Cc3ccc(Cl)cc3)CC2)s1 [compound 185, (2S,5S)-5-(4-chlorobenzyl)-2-methyl-4-(1-(5-methylthiazol-2-yl)piperidin-4-yl)morpholine 2,2,2-trifluoroacetate]		< 100	100 to 1000
Cc1noc(N2CCC(N3C[C@H](C)OC[C@@H]3Cc3ccc(Cl)cc3)CC2)n1 [compound 188, (2S,5S)-5-(4-chlorobenzyl)-2-methyl-4-(1-(3-methyl-1,2,4-oxadiazol-5-yl)piperidin-4-yl)morpholine 2,2,2-trifluoroacetate]		> 100000	
